Measurements as given in patent US20230192706A1, “BICYCLIC AMINES AS CDK2 INHIBITORS” (Incyte Corporation, priority 2021, published 2023).
pIC50: −log10 of the molar value.

Molecular target: T1, CDK2/Cyclin E1 (Homo sapiens, UniProt P24941)
T1 construct: full-length human CDK2 co-expressed as N-terminal GST-tagged protein; GST (N); purchased Carna 04-165; host or cells: baculovirus expression system
Assay: CDK2/Cyclin E1 HTRF enzyme activity assay
Assay type: biochemical
Details: 1 mM ATP; CDK2/Cyclin E1 0.25 nM; 60 minutes at room temperature
Method: CDK2/Cyclin E1 enzyme activity assays utilize full-length human CDK2 co-expressed as N-terminal GST-tagged protein with FLAG-Cyclin E1 in a baculovirus expression system (Carna Product Number 04-165). Assays were conducted in white 384-well polystyrene plates in a final reaction volume of 8 µL. CDK2/Cyclin E1 (0.25 nM) was incubated with the compounds of the Examples (40 nL serially diluted in DMSO) in the presence of ATP (50 µM or 1 mM) and 50 nM ULight^Tm-labeled eIF4E-binding protein 1 (THR37/46) peptide (PerkinElmer) in assay buffer (containing 50 mM HEPES pH 7.5, 1 mM EGTA, 10 mM MgCl2, 2 mM DTT, 0.05 mg/mL BSA, and 0.01% Tween 20) for 60 minutes at room temperature. The reactions were stopped by the addition of EDTA and Europium-labeled anti-phospho-4E-BP1 antibody (PerkinElmer), for a final concentration of 15 mM and 1.5 nM, respectively. HTRF signals were read after 1 hour at room temperature on a PHERAstar FS plate reader (BMG Labtech). Data was analyzed with IDBS XLFit and GraphPad Prism 5.0 software using a three or four parameter dose response curve to determine IC50 for each compound.

pIC50, > 8.00:
CC(C)Oc1c(-c2cn[nH]c2)ccn2nc(N[C@H]3CCOC[C@H]3F)nc12 [Example 5, N-((3S,4S)-3-Fluorotetrahydro-2H-pyran-4-yl)-8-isopropoxy-7-(1H-pyrazol-4-yl)-[1,2,4]triazolo[1,5-α]pyridin-2-amine]
Cc1cc(-c2c(-c3cn[nH]c3)ccn3nc(N[C@H]4CCOC[C@H]4F)nc23)c(F)cc1C#N [Example 2, 5-Fluoro-4-(2-(((3S,4S)-3-fluorotetrahydro-2H-pyran-4-yl)amino)-7-(1H-pyrazol-4-yl)-[1,2,4]triazolo[1,5-a]pyridin-8-yl)-2-methylbenzonitrile]
F[C@@H]1CCN(c2c(-c3cn[nH]c3)ccn3nc(N[C@H]4CCOC[C@H]4F)nc23)C1 [Example 3, 8—((R)—3-Fluoropyrrolidin-1-yl)-N((3S,4S)-3-fluorotetrahydro-2H-pyran-4-yl)-7-(1H-pyrazol-4-yl)-[1,2,4]triazolo[1,5-α]pyridin-2-amine]
CC(C)Oc1c(-c2cn[nH]c2)ncn2nc(N[C@H]3CCOC[C@H]3F)nc12 [Example 7, N-((3S, 4S)-3-Fluorotetrahydro-2H-pyran-4-yl)-8-isopropoxy-7-(1H-pyrazol-4-yl)-[1,2,4]triazolo[1,5-c]pyrimidin-2-amine]
FC(F)C1(Oc2c(-c3cn[nH]c3)ncc3nc(N[C@H]4CCOC[C@H]4F)nn23)CCC1 [Example 10, 5-(1-(Difluoromethyl)cyclobutoxy)-N-((3S,4S)-3-fluorotetrahydro-2H-pyran-4-yl)-6-(1H-pyrazol-4-yl)-[1,2,4]triazolo[1,5-α]pyrazin-2-amine]
C[C@@H](Oc1c(-c2cn[nH]c2)ncc2nc(N[C@H]3CCOC[C@H]3F)nn12)C(F)(F)F [Example 9, N-((3S,4S)-3-Fluorotetrahydro-2H-pyran-4-yl)-6-(1H-pyrazol-4-yl)-5—(((R)—1,1,1-trifluoropropan-2-yl)oxy)-[1,2,4]triazolo[1,5-α]pyrazin-2-amine]
FC(F)C1(Oc2c(-c3cn[nH]c3)ncc3nc(NC4CCOCC4)nn23)CCC1 [Example 11, 5-(1-(Difluoromethyl)cyclobutoxy)-6-(1H-pyrazol-4-yl)-N-(tetrahydro-2H-pyran-4-yl)-[1,2,4] triazolo [1,5-α] pyrazin-2-amine]
F[C@@H]1COCC[C@@H]1Nc1nc2c(N3CCCC(F)(F)C3)c(-c3cn[nH]c3)ccn2n1 [Example 4, 8-(3,3-Difluoropiperidin-1-yl)-N-((3S,4S)-3-fluorotetrahydro-2H-pyran-4-yl)-7-(1H-pyrazol-4-yl)-[1,2,4]triazolo[1,5-α]pyridin-2-amine]
CC(C)Oc1c(-c2cn[nH]c2)ncc2nc(N[C@H]3CCOC[C@H]3F)nn12 [Example 12, N-((3S,4S)-3-Fluorotetrahydro-2H-pyran-4-yl)-5-isopropoxy-6-(1H-pyrazol-4-yl)-[1,2,4]triazolo[1,5-α] pyrazin-2-amine]
Cc1cc(-c2c(-c3cn[nH]c3)ccn3nc(NC4CCOCC4)nc23)ccc1C#N [Example 1, 4-(7-(1H-Pyrazol-4-yl)-2-((tetrahydro-2H-pyran-4-yl)aminoamino)-[1,2,4]triazolo[1,5-a]pyridin-8-yl)-2-methylbenzonitrile]
F[C@@H]1COCC[C@@H]1Nc1nc2cnc(-c3cn[nH]c3)c(N3CCCCC3)n2n1 [Example 13, N-((3S,4S)-3-Fluorotetrahydro-2H-pyran-4-yl)-5-(piperidin-1-yl)-6-(1H-pyrazol-4-yl)-[1,2,4]triazolo[1,5-α]pyrazin-2-amine]
CC(C)Oc1c(-c2cn[nH]c2)ncn2nc(NC3CCOC(C)C3)nc12 (single isomer, unassigned) [Example 6, 8-Isopropoxy-N-(2-methyltetrahydro-2H-pyran-4-yl)-7-(1H-pyrazol-4-yl)-[1,2,4]triazolo[1,5-c]pyrimidin-2-amine]
C[C@H](Oc1c(-c2cn[nH]c2)ncc2nc(N[C@H]3CCOC[C@H]3F)nn12)C(F)(F)F [Example 8, N-((3S,4S)-3-Fluorotetrahydro-2H-pyran-4-yl)-6-(1H-pyrazol-4-yl)-5-(((5)-1,1,1-trifluoropropan-2-yl)oxy)-[1,2,4]triazolo[1,5-α]pyrazin-2-amine]
